Results on nine compounds are retold here after PMC9600172, “N-Succinyltransferase Encoded by a Cryptic Siderophore Biosynthesis Gene Cluster in Streptomyces Modifies Structurally Distinct Antibiotics” (mBio, 2022).

What all share (set-up): Broth microdilution MIC following CLSI protocol, bacterial growth inhibition, at Medina Foundation
Background: Broth dilution looks for growth in wells or tubes with falling amounts of substance.

Assay [1] concerns T1, E. faeciumVS.
T1 construct: VS (vancomycin-susceptible)
Briefly: organism not typed. Here is the method: (§1) Testing of antimicrobial activities of desertomycin A and X was done by disk diffusion assay using Bacillus subtilis 164, Escherichia coli DH5a, and Saccharomyces cerevisiae BY4742 as test organisms. […] In vitro susceptibility for desertomycin A was determined at Medina Foundation (Granada, Spain) by the broth microdilution method following the Clinical and Laboratory Standards Institute protocol ([34]) using bacterial strains from the company’s strain collection (Table S4). […] In order to properly assess antibiotic activity of desertomycin A, it was tested, along with some clinically relevant antibiotics, on a panel of Gram-positive and Gram-negative bacteria using the broth microdilution method. […] This can be explained by different physiological conditions of bacterial cultures on the solid agar medium (initial disk assay) and in [compound left out] cultures (CLSI method).

For assay [2], the system named is T2, E. faeciumVR.
T2 construct: VR (vancomycin-resistant)
In words: organism not typed. Here is the method:
as §1

For assay [3], the system named is T3, Staphylococcus aureus MSSA MB2865.
T3 construct: MB2865 (MSSA)
Briefly: microbe, parasite or virus in culture. Here is the method:
as §1

Assay [4] deals with T4, Staphylococcus aureus MRSA MB5393.
T4 construct: MB5393 (MRSA)
In words: microbe, parasite or virus in culture. How it is done: as §1

The next assay has as its system T5, S. mutans ATCC25175.
T5 construct: ATCC 25175
In words: microbe, parasite or virus in culture. The note with it: Streptococcus mutans.

Assay [5] concerns T3, Staphylococcus aureus MSSA MB2865. In words: microbe, parasite or virus in culture. How it is done:
as §1, with “liquid” for “[compound left out]”
This is another data set of the same source.

For assay [6], the system named is T4, Staphylococcus aureus MRSA MB5393. Briefly: microbe, parasite or virus in culture. How it is done:
as §1, with “liquid” for “[compound left out]”
The source holds these as a separate data set.

Assay [7] deals with T1, E. faeciumVS. Briefly: organism not typed. Here is the method: as §1, with “liquid” for “[compound left out]”
This is another data set of the same source.

The subject of assay [8] is T2, E. faeciumVR. Briefly: organism not typed. How it is done:
as §1, with “liquid” for “[compound left out]”
This is another data set of the same source.

Structures are written as SMILES. Converted amounts (≈) assume the structure as drawn. Read-outs that look alike come from different tables or passages of the source.

Turning to `C[C@H]1[C@H](NC(=O)/C(=N\OC(C)(C)C(=O)O)c2csc(N)n2)C(=O)N1S(=O)(=O)O` [Aztreonam], the MIC (in the assay with E. faeciumVS [1]; in the assay on E. faeciumVR [2]; in assay [3]; in [4]) was above 128 µg/mL throughout.
Regarding `O=C(O)c1cn(C2CC2)c2cc(N3CCNCC3)c(F)cc2c1=O` [Ciprofloxacin], the MIC with E. faeciumVS [1] is above 128 µg/mL; against E. faeciumVR [2] it was 16 µg/mL (≈ 48.3 µM); in [3] it was below 0.25 µg/mL; in assay [4], 0.5 µg/mL (≈ 1.51 µM).
Take `CC1=CCCC(C)C(O)C(C)C(O)CCC=CC(C)C(O)C=CC(C)C(O)C(C)=CC(O[C@H]2O[C@H](CO)[C@@H](O)[C@H](O)[C@@H]2O)C(O)CC(O)CC(O)CC(O)C(C)C(O)C(C)C(O)CC(O)CC(O)C=CCC(C(C)C(O)CCCN)OC1=O` (stereo partly shown) [Desertomycin A]: the MIC against E. faeciumVS [1] was found to be 64 µg/mL (≈ 53.7 µM); against E. faeciumVR [2], 128 µg/mL (≈ 107 µM); with S. mutans ATCC25175 it was 32 µg/mL (≈ 26.8 µM); in assay [3] it was 32 µg/mL (≈ 26.8 µM); in assay [4] it was 64 µg/mL (≈ 53.7 µM).
Consider `CNC(C)[C@@H]1CC[C@@H](N)[C@@H](O[C@H]2[C@H](O)[C@@H](O[C@H]3OC[C@](C)(O)[C@H](NC)[C@H]3O)[C@H](N)C[C@@H]2N)O1` (stereo partly shown) [Gentamicin], for which the MIC in [5] is 1 µg/mL (≈ 2.09 µM); in assay [6], below 0.25 µg/mL; in the assay on E. faeciumVS [7] it was above 128 µg/mL; against E. faeciumVR [8] it was 32 µg/mL (≈ 67 µM).
For `C[C@@H](O)[C@H]1C(=O)N2C(C(=O)O)=C(SCCNC=N)C[C@H]12` [Imipenem], the MIC against E. faeciumVS [1] is above 128 µg/mL; in the assay with E. faeciumVR [2], above 128 µg/mL; in [3] it was below 0.25 µg/mL; in assay [4], 8 µg/mL (≈ 26.7 µM).
For `C[C@@H](O)[C@H]1C(=O)N2C(C(=O)O)=C(S[C@@H]3CN[C@H](C(=O)N(C)C)C3)[C@H](C)[C@H]12` [Meropenem], the MIC in the assay on E. faeciumVS [1] is above 128 µg/mL; in the assay on E. faeciumVR [2], above 128 µg/mL; in assay [3], below 0.25 µg/mL; in assay [4], 8 µg/mL (≈ 20.9 µM).
Regarding `CC1(C)S[C@@H]2[C@H](NC(=O)Cc3ccccc3)C(=O)N2[C@H]1C(=O)O` [Penicillin G], the MIC with E. faeciumVS [1] is above 128 µg/mL; in the assay on E. faeciumVR [2], above 128 µg/mL; in assay [3], 16 µg/mL (≈ 47.8 µM); in assay [4], 16 µg/mL (≈ 47.8 µM).
For the compound `CO[C@H]1/C=C/O[C@@]2(C)Oc3c(C)c(O)c4c(O)c(c(/C=N/N5CCN(C)CC5)c(O)c4c3C2=O)NC(=O)/C(C)=C\C=C\[C@H](C)[C@H](O)[C@@H](C)[C@@H](O)[C@@H](C)[C@H](OC(C)=O)[C@@H]1C` [Rifampicin], the MIC in the assay on E. faeciumVS [1] is 8 µg/mL (≈ 9.72 µM); against E. faeciumVR [2] it was 16 µg/mL (≈ 19.4 µM); in assay [3] it was 0.5 µg/mL (≈ 0.608 µM); in [4], 0.5 µg/mL (≈ 0.608 µM).
With `CN[C@H](CC(C)C)C(=O)N[C@H]1C(=O)N[C@@H](CC(N)=O)C(=O)N[C@H]2C(=O)N[C@H]3C(=O)N[C@H](C(=O)N[C@H](C(=O)O)c4cc(O)cc(O)c4-c4cc3ccc4O)[C@H](O)c3ccc(c(Cl)c3)Oc3cc2cc(c3O[C@@H]2O[C@H](CO)[C@@H](O)[C@H](O)[C@H]2O[C@H]2C[C@](C)(N)[C@H](O)[C@H](C)O2)Oc2ccc(cc2Cl)[C@H]1O` [Vancomycin], the MIC was 16 µg/mL (≈ 11 µM) against E. faeciumVS [1], above 128 µg/mL in the assay on E. faeciumVR [2], 2 µg/mL (≈ 1.38 µM) in [3] and 8 µg/mL (≈ 5.52 µM) in [4].
